Patent US20060194837A1, “Tetrahydroisoquinoline compounds” (priority 2004, published 2006)

Tests used:
[1] = biological target: T1, human H3 receptor (Homo sapiens, UniProt Q9Y5N1); experiment: H3 receptor binding (N-[3H]-α-methylhistamine displacement); settings: membranes of SK-N-MC cells expressing cloned human H3 receptor, 0.8 nM N-[3H]-α-methylhistamine, 60 min at 25° C.
T1 construct: expressed in transfected cells

[2] = biological target: T2, Rat SERT (Rattus norvegicus, UniProt P31652); experiment: Rat brain SERT binding ([3H]-citalopram displacement); settings: rat brain membranes without cerebellum, 0.6 nM [3H]-citalopram, 60 min at 25° C.; read-out: Rat SERT Ki
T2 construct: A rat brain without cerebellum (Zivic Laboratories, Inc.—Pittsburgh, Pa.) was homogenized; tissue Zivic Laboratories, Inc; host or cells: rat brain without cerebellum, membranes
Procedure: The supernatant was removed and re-centrifuged at 15,000 rpm for 30 min. […] Membranes were incubated with 0.6 nM [^3H]-Citalopram plus/minus test compounds for 60 min at 25° C. and harvested by rapid filtration over GF/C glass fiber filters (pretreated with 0.3% polyethylenimine) followed by four washes with ice-cold buffer.

[3] = biological target: T1, human H3 receptor; experiment: Cyclic AMP accumulation (β-galactosidase reporter, Schild analysis); format: cell-based; settings: SK-N-MC cells expressing human H3 receptor and CRE-β-galactosidase reporter; histamine agonist, forskolin 5 μM; Schild regression of pEC50 values; read-out: pA2 (converted)
Procedure: Sublines of SK-N-MC cells were created that expressed a reporter construct and the human H3 receptor. The reporter gene (β-galactosidase) is under the control of multiple cyclic AMP responsive elements. In 96-well plates, histamine was added directly to the cell media followed 5 min later by an addition of forskolin (5 μM final concentration). When appropriate, antagonists were added 10 min prior to agonist addition. After a 6-h incubation at 37° C., the media was aspirated and the cells washed with 200 μL of phosphate-buffered saline followed by a second aspiration. Cells were lysed with 25 μL 0.1× assay buffer (10 mM Na-phosphate, pH 8, 0.2 mM MgSO4, 0.01 mM MnCl2) and incubated at rt for 10 min. […] Color was developed using 25 μL of 1 mg/mL substrate solution (chlorophenolred β-D galactopyranoside; Roche Molecular Biochemicals, Indianapolis, In.).

[4] = biological target: T3, human SERT (Homo sapiens, UniProt P31645); experiment: Human SERT binding (3H-citalopram displacement); settings: HEK293 membranes expressing human SERT, rt 1 h
T3 construct: expressed in transfected cells; host or cells: HEK293 membranes
Procedure: Homogenized HEK293 (Human Embryonic Kidney) membranes expressing the human SERT were incubated with ^3H-citalopram (SERT) at rt for 1 h in 50 mM Tris, 120 mM NaCl, 5 mM KCl (pH 7.4). […] The membranes were washed and the radioactivity was counted as above.

T3 sequence (P31645 whole entry): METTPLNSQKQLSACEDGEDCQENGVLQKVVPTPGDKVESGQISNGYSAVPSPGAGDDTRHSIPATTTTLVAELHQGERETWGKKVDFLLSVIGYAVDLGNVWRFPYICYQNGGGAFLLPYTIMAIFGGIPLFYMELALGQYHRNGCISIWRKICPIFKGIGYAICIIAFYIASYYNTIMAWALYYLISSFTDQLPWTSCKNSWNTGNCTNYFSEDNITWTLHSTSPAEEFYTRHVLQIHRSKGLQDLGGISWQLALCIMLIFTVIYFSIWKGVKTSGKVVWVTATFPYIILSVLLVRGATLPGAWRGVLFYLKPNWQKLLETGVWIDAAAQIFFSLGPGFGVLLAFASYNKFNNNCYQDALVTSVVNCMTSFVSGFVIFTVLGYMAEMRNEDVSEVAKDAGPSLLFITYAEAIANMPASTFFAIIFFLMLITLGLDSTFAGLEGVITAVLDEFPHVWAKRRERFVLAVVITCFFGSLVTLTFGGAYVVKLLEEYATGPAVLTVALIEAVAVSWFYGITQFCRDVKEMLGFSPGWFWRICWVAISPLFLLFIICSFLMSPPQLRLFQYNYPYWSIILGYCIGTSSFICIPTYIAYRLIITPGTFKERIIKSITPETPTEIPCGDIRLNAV
T2 sequence (P31652 whole entry): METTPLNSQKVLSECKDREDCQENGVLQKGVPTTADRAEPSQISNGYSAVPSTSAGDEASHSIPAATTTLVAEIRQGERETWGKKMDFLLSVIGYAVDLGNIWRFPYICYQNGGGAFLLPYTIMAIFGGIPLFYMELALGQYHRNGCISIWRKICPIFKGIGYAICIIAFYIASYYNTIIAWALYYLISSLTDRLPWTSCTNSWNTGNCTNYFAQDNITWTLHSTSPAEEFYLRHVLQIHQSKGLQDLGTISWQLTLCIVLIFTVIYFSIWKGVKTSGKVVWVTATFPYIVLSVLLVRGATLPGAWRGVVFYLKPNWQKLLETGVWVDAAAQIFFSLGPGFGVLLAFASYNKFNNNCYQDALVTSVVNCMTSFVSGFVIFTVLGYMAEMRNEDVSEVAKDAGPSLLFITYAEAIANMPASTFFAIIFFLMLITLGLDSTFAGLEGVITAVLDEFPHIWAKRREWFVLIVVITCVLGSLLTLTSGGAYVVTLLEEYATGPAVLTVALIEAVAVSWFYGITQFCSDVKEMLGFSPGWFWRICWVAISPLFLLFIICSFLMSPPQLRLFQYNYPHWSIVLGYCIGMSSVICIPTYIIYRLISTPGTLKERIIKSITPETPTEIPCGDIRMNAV
T1 sequence (Q9Y5N1 whole entry): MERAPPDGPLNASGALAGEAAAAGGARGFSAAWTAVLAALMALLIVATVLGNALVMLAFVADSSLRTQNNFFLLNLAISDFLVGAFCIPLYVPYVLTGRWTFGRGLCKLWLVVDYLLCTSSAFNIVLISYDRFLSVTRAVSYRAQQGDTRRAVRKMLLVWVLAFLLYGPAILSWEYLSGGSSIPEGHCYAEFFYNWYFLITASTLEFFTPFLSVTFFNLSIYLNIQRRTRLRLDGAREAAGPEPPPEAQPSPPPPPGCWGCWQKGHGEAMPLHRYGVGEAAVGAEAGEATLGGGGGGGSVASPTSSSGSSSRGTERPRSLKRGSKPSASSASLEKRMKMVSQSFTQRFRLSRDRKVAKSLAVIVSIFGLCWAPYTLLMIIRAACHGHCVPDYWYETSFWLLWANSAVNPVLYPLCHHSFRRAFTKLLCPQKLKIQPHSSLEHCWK

Row | Ki [1] | Ki [2] | Kb [3] | Ki [4] | SMILES
1 | 5 nM | 3 nM | 15.8 nM | – | CSc1ccc(C2CN(C)Cc3cc(OCC4CN(C5CC5)C4)ccc32)cc1 (stereo not drawn) [Example 237, 7-(1-Cyclopropyl-azetidin-3-ylmethoxy)-2-methyl-4-(4-methylsulfanyl-phenyl)-1,2,3,4-tetrahydro-isoquinoline]
2 | 9 nM | 8 nM | 31.6 nM | – | CN1Cc2cc(OCCCN3CCC(F)CC3)ccc2C(c2ccc(Cl)c(Cl)c2)C1 (stereo not drawn) [Example 58, 4-(3,4-Dichloro-phenyl)-7-[3-(4-fluoro-piperidin-1-yl)-propoxy]-2-methyl-1,2,3,4-tetrahydro-isoquinoline]
3 | 2 nM | 91 nM | 3.16 nM | – | CN1Cc2cc(OCCCN3CCOCC3)ccc2C(c2ccc([S+](C)[O-])cc2)C1 (single isomer, unassigned) [Example 165A, 4-(4-Methanesulfinyl-phenyl)-2-methyl-7-(3-morpholin-4-yl-propoxy)-1,2,3,4-tetrahydro-isoquinoline]
4 | 5 nM | 4 nM | 12.6 nM | – | CSc1ccc(C2CN(C)Cc3cc(OCC4CN(C5CCC5)C4)ccc32)cc1 (stereo not drawn) [Example 238, 7-(1-Cyclobutyl-azetidin-3-ylmethoxy)-2-methyl-4-(4-methylsulfanyl-phenyl)-1,2,3,4-tetrahydro-isoquinoline]
5 | 7 nM | 12 nM | 5.01 nM | – | COc1ccc(C2CN(C)Cc3cc(OC[C@H]4CN(C(C)C)CCO4)ccc32)cc1 (single isomer, unassigned) [Example 256A, 7-(4-Isopropyl-morpholin-2R-ylmethoxy)-4-(4-methoxy-phenyl)-2-methyl-1,2,3,4-tetrahydro-isoquinoline]
6 | 2 nM | 13 nM | 1.58 nM | – | COc1ccc(C2CN(C)Cc3cc(OCCCN4CCCCC4)c(C)cc32)cc1 (stereo not drawn) [Example 265, 4-(4-Methoxy-phenyl)-2,6-dimethyl-7-(3-piperidin-1-yl-propoxy)-1,2,3,4-tetrahydro-isoquinoline]
7 | 9 nM | 18 nM | 10 nM | – | COc1ccc(C2CNCc3cc(OCCCN4CCC(F)CC4)ccc32)cc1 (stereo not drawn) [Example 147, 7-[3-(4-Fluoro-piperidin-1-yl)-propoxy]-4-(4-methoxy-phenyl)-1,2,3,4-tetrahydro-isoquinoline]
8 | 2 nM | 17 nM | 1 nM | – | COc1ccc(C2CN(C)Cc3cc(OC[C@@H]4CN(C5CC5)CCO4)ccc32)cc1 (single isomer, unassigned) [Example 260A, 7-(4-Cyclopropyl-morpholin-2S-ylmethoxy)-4-(4-methoxy-phenyl)-2-methyl-1,2,3,4-tetrahydro-isoquinoline]
9 | 5 nM | 3 nM | – | 5 nM | CCOc1ccc(C2CN(C)Cc3cc(OCCCN4CCC(F)CC4)ccc32)cc1 (stereo not drawn) [Example 145, 4-(4-Ethoxy-phenyl)-7-[3-(4-fluoro-piperidin-1-yl)-propoxy]-2-methyl-1,2,3,4-tetrahydro-isoquinoline]
10 | 2000 nM | 19 nM | – | 18 nM | COc1ccc(C2CN(C)Cc3cc(OCCCN4CCN(C(=O)c5cn(C)cn5)CC4)ccc32)cc1 (stereo not drawn) [Example 14, (4-{3-[4-(4-Methoxy-phenyl)-2-methyl-1,2,3,4-tetrahydro-isoquinolin-7-yloxy]-propyl}-piperazin-1-yl)-(1-methyl-1H-imidazol-4-yl)-methanone]
11 | 9 nM | 9 nM | – | 7 nM | COc1ccc(C2CN(C)Cc3cc(OCC4CN(C(C)C)CCO4)ccc32)cc1 (stereo not drawn) [Example 254, 7-(4-Isopropyl-morpholin-2-ylmethoxy)-4-(4-methoxy-phenyl)-2-methyl-1,2,3,4-tetrahydro-isoquinoline]
12 | 9 nM | 5 nM | – | 6 nM | CCCN1CCC(COc2ccc3c(c2)CN(C)CC3c2ccc(OC)c(F)c2)CC1 (stereo not drawn) [Example 112, 4-(3-Fluoro-4-methoxy-phenyl)-2-methyl-7-(1-propyl-piperidin-4-ylmethoxy)-1,2,3,4-tetrahydro-isoquinoline]
13 | 4000 nM | 33 nM | – | 21 nM | COc1ccc(C2CN(C)Cc3cc(OCCCN4CCN(C(=O)c5ccncc5)CC4)ccc32)cc1 (stereo not drawn) [Example 4, (4-{3-[4-(4-Methoxy-phenyl)-2-methyl-1,2,3,4-tetrahydro-isoquinolin-7-yloxy]-propyl}-piperazin-1-yl)-pyridin-4-yl-methanone]
14 | 3 nM | 7 nM | – | 7 nM | COc1ccc(C2CN(C)Cc3cc(OCC4CCN(C)CC4)ccc32)cc1 (stereo not drawn) [Example 84, 4-(4-Methoxy-phenyl)-2-methyl-7-(1-methyl-piperidin-4-ylmethoxy)-1,2,3,4-tetrahydro-isoquinoline]
15 | 534 nM | 15 nM | – | 15 nM | COc1ccc(C2CN(C)Cc3cc(OCCCN4CCN(C(=O)C5CCC5)CC4)ccc32)cc1 (stereo not drawn) [Example 6, Cyclobutyl-(4-{3-[4-(4-methoxy-phenyl)-2-methyl-1,2,3,4-tetrahydro-isoquinolin-7-yloxy]-propyl}-piperazin-1-yl)-methanone]
16 | 5 nM | 4 nM | – | 5 nM | COc1ccc(C2CN(C)Cc3cc(OCC4CCN(CC(C)C)CC4)ccc32)cc1 (stereo not drawn) [Example 110, 7-(1-Isobutyl-piperidin-4-ylmethoxy)-4-(4-methoxy-phenyl)-2-methyl-1,2,3,4-tetrahydro-isoquinoline]
17 | 89 nM | 9 nM | – | 13 nM | COc1ccc(C2CN(C)Cc3cc(OCCCN4CCC(C#N)CC4)ccc32)cc1 (single isomer, unassigned) [Example 37A, 1-{3-[4-(4-Methoxy-phenyl)-2-methyl-1,2,3,4-tetrahydro-isoquinolin-7-yloxy]-propyl}-piperidine-4-carbonitrile]
18 | 10 nM | 27 nM | – | 11 nM | CN1Cc2cc(OCCCN3CCC(F)CC3)ccc2C(c2ccc(Cl)cc2)C1 (stereo not drawn) [Example 47, 4-(4-Chloro-phenyl)-7-[3-(4-fluoro-piperidin-1-yl)-propoxy]-2-methyl-1,2,3,4-tetrahydro-isoquinoline]
19 | 7 nM | 2 nM | – | 3 nM | COc1ccc(C2CN(C)Cc3cc(OCCCN4CCCCC4CCO)ccc32)cc1 (stereo not drawn) [Example 36, 2-(1-{3-[4-(4-Methoxy-phenyl)-2-methyl-1,2,3,4-tetrahydro-isoquinolin-7-yloxy]-propyl}-piperidin-2-yl)-ethanol]
20 | 23 nM | 6 nM | – | 8 nM | COc1ccc(C2CN(C)Cc3cc(CCCCN4CCOCC4)ccc32)cc1 (stereo not drawn) [Example 281, 4-(4-Methoxy-phenyl)-2-methyl-7-(4-morpholin-4-yl-butyl)-1,2,3,4-tetrahydro-isoquinoline]
21 | 11 nM | 3 nM | – | 5 nM | COc1ccc(C2CN(C)Cc3cc(OCCCN4CCC(CO)CC4)ccc32)cc1 (stereo not drawn) [Example 22, (1-{3-[4-(4-Methoxy-phenyl)-2-methyl-1,2,3,4-tetrahydro-isoquinolin-7-yloxy]-propyl}-piperidin-4-yl)-methanol]
22 | 14 nM | 7 nM | – | 5 nM | COc1ccc(C2CN(C)Cc3cc(OCCCN4CCC(F)(F)C4)ccc32)cc1 (stereo not drawn) [Example 129, 7-[3-(3,3-Difluoro-pyrrolidin-1-yl)-propoxy]-4-(4-methoxy-phenyl)-2-methyl-1,2,3,4-tetrahydro-isoquinoline]
23 | 3 nM | 4 nM | – | 7 nM | COc1ccc(C2CN(C)Cc3cc(OCCCN4CCC(F)CC4)ccc32)cc1F (racemic) [Example 142, 4-(3-Fluoro-4-methoxy-phenyl)-7-[3-(4-fluoro-piperidin-1-yl)-propoxy]-2-methyl-1,2,3,4-tetrahydro-isoquinoline]
24 | 8 nM | 6 nM | – | 7 nM | COc1ccc(C2CN(C)Cc3cc(OCC4CCN(CCF)CC4)ccc32)cc1 (stereo not drawn) [Example 116, 7-[1-(2-Fluoro-ethyl)-piperidin-4-ylmethoxy]-4-(4-methoxy-phenyl)-2-methyl-1,2,3,4-tetrahydro-isoquinoline]
25 | 65 nM | 14 nM | – | 27 nM | COc1ccc(C2CN(C)Cc3cc(C#CCCN4CCC(F)(F)CC4)ccc32)cc1 (stereo not drawn) [Example 274, 7-[4-(4,4-Difluoro-piperidin-1-yl)-but-1-ynyl]-4-(4-methoxy-phenyl)-2-methyl-1,2,3,4-tetrahydro-isoquinoline]
